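These data come from cells grown in 96-well plates and exposed to compound for 48 hours at five concentrations. TGI marks complete inhibition of growth.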
Tests used:
Assay in all cases: NCI-60 cell line screen, 48 h
HCC-2998 colon = test system: HCC-2998 colon
NCI-H522 lung = test system: NCI-H522 lung
COLO 205 colon = test system: COLO 205 colon
DU-145 prostate = test system: DU-145 prostate
MALME-3M melanoma = test system: MALME-3M melanoma
OVCAR-8 ovarian = test system: OVCAR-8 ovarian
OVCAR-5 ovarian = test system: OVCAR-5 ovarian
BT-549 breast = test system: BT-549 breast
SNB-75 CNS = test system: SNB-75 CNS
HOP-92 NSCLC = test system: HOP-92 NSCLC

Compound	TGI (HCC-2998 colon) [µM]	TGI (NCI-H522 lung) [µM]	TGI (COLO 205 colon) [µM]	TGI (DU-145 prostate) [µM]	TGI (MALME-3M melanoma) [µM]	TGI (OVCAR-8 ovarian) [µM]	TGI (OVCAR-5 ovarian) [µM]	TGI (BT-549 breast) [µM]	TGI (SNB-75 CNS) [µM]	TGI (HOP-92 NSCLC) [µM]
O=C(Nc1ccccc1F)c1cc2ccc(O)cc2oc1=Nc1ccccc1F	8.04	3.09	61.7	3.75	3.44	3.36	15.3	6.95		
c1ccc2c(c1)c1c(n2CCOCCN2CCOCC2)CCCC1				> 100	29	> 100	> 100		70.2	71.9
CC1CN=C(N(C(=O)Nc2ccc(F)c(Cl)c2)c2ccccc2)S1 (configuration not stated)			38.9	> 100	78.5	65.7	76.3		63.7	48.1
Cc1cn([C@@H]2C[C@H](CO)[C@@H](O)C2)c(=O)[nH]c1=O	> 100	> 100	> 100		> 100	> 100	> 100		> 100	> 100
N#CC(N=Nc1ccc(Cl)cc1)c1nc2ccccc2o1 (configuration not stated)	> 100	81.1	> 100	> 100	> 100	> 100	> 100	95.6		70.4
NNC1=N/C(=C\c2ccco2)C(Cl)=N1	> 100	92.2	> 100	> 100	> 100	> 100	> 100		> 100	> 100
Cn1ccnc1C(O)(c1nccn1C)c1nccn1C	> 100	> 100	> 100		> 100	> 100	> 100		> 100	> 100
O=c1ccn(C2OC(CO)C(P(=O)(O)O)C2O)c(=O)[nH]1 (configuration not stated)	> 100	> 100		> 100	> 100	> 100	> 100	> 100	> 100	> 100
CSC(=Nc1ccccc1)N(c1ccccc1)c1nc(=[N+](C)C)ss1	20.7	1.72	3.88		22.6	6.19	28.6		16.3	7.09
CC(C)(C)OC(=O)NCCC(N)=S			> 100	> 100	> 100	> 100	> 100	> 100	> 100	> 100
Cc1ccc(CC[P+](=O)CCc2ccc(C)nc2)cn1	> 100	> 100	> 100	> 100	> 100	> 100	> 100			> 100
CC(=O)OCC1OC(n2cc(I)c(=O)[nH]c2=O)C(OC(C)=O)C(OC(C)=O)C1OC(C)=O (configuration not stated)	> 100	> 100	> 100		> 100	> 100	> 100		> 100	> 100
O=C1Sc2ccccc2C(=O)N2CSCC12 (configuration not stated)	> 100	> 100	> 100		> 100	> 100			> 100	> 100
CCOC(=O)C1(C(=O)OCC)COS(=O)OC1	> 100	2.1	54.5	> 100		> 100			> 100	28.6
N#CC1=C(c2ccccc2)NNC(c2ccc(Cl)cc2)CC1=O (configuration not stated)	> 100	51.7			> 100		> 100		41.7	> 100
CCOC(=O)c1nc2ccc(C(F)(F)F)cc2nc1Oc1ccc(C#N)cc1	> 100		88.5	38.1		46.4		36.8	28	47.2
O=[N+]([O-])c1ccc(/C=C/c2cc(-c3ccccc3)nc3ccc4ccccc4c23)cc1	> 100		> 100	> 100	> 100	> 100	> 100		> 100	
Cc1c(N2C(=O)C(Cl)C2c2ccc(Cl)cc2)c(=O)n(-c2ccccc2)n1C (configuration not stated)		> 100	> 100	> 100	> 100	> 100	> 100	> 100		> 100
COC(=O)c1cc2c(cc1CC1Cc3cc4c(cc3C1)CCC4)CCC2	70	80	> 100	> 100	> 100	> 100	> 100		> 100	98.9

From PubChem BioAssay (NCI)
